Reference: PubChem BioAssay AID200 (DTP/NCI, 2004)
Values joined by “and” are separate entries in the source; they are usually repeats but may differ in a detail not shown here. Identical values can stand only once. Toxic doses and inconclusive results are not listed. Where a SMILES comes first, the peptide text is derived from it. [ ]: non-standard residue; d: D form. The star is where a group is joined. Cbz = O=C(OCc1ccccc1)*; Nva = CCC[CH](N)C(=O)O

System: B6C3F1 mice, B16 melanoma ip, median survival T/C
Assay: NCI In Vivo Anticancer Drug Screen. Data for tumor model B16 Melanoma (intraperitoneal) in B6C3F1 mice
Details: endpoint: median survival time, higher = longer survival
Outline: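 Values are T/C ratios: the measurement in treated animals divided by that in vehicle-treated controls, using survival or tumor size in mice carrying transplantable tumors.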

[1] = dose: 25.0 mg/kg/injection, schedule: Q01DX009 (ip), vehicle: Klucel (hydroxypropylcellulose) (HPC)
[2] = dose: 50.0 mg/kg/injection, schedule: Q01DX009 (ip), vehicle: Klucel (hydroxypropylcellulose) (HPC)
[3] = dose: 100.0 mg/kg/injection, schedule: Q01DX009 (ip), vehicle: Klucel (hydroxypropylcellulose) (HPC)
[4] = dose: 0.5 mg/kg/injection, schedule: Q01DX009 (ip), vehicle: saline
[5] = dose: 100.0 mg/kg/injection, schedule: Q01DX009 (ip), vehicle: saline
[6] = dose: 200.0 mg/kg/injection, schedule: Q01DX009 (ip), vehicle: saline
[7] = dose: 400.0 mg/kg/injection, schedule: Q01DX009 (ip), vehicle: saline
[8] = dose: 6.25 mg/kg/injection, schedule: Q01DX009 (ip), vehicle: saline with Tween-80
[9] = dose: 12.5 mg/kg/injection, schedule: Q01DX009 (ip), vehicle: saline with Tween-80
[10] = dose: 25.0 mg/kg/injection, schedule: Q01DX009 (ip), vehicle: saline with Tween-80
[11] = dose: 50.0 mg/kg/injection, schedule: Q01DX009 (ip), vehicle: saline with Tween-80
[12] = dose: 100.0 mg/kg/injection, schedule: Q01DX009 (ip), vehicle: saline with Tween-80
[13] = dose: 200.0 mg/kg/injection, schedule: Q01DX009 (ip), vehicle: saline with Tween-80
[14] = dose: 400.0 mg/kg/injection, schedule: Q01DX009 (ip), vehicle: saline with Tween-80
[15] = dose: 200.0 mg/kg/injection, schedule: Q01DX009 (ip), vehicle: Klucel (hydroxypropylcellulose) (HPC)
[16] = dose: 400.0 mg/kg/injection, schedule: Q01DX009 (ip), vehicle: Klucel (hydroxypropylcellulose) (HPC)

How did the T/C (dose: 6.25 mg/kg/injection, schedule: Q01DX009 (ip), vehicle: Klucel (hydroxypropylcellulose) (HPC)) turn out when `CC(C)CC(=O)NC(C(=O)NC(C(=O)NC(CC(C)C)C(O)CC(=O)NC(C)C(=O)NC(CC(C)C)C(O)CC(=O)O)C(C)C)C(C)C` (stereo not drawn) was run?
Its T/C is 102 % of control.

What about the T/C (dose: 12.5 mg/kg/injection, schedule: Q01DX009 (ip), vehicle: Klucel (hydroxypropylcellulose) (HPC)) of the same compound?
The T/C was 93 % of control.

What about the T/C [1] of the same compound?
The T/C was 96 % of control.

And the T/C [2]?
Its T/C is 88 % of control.

How did the T/C (dose: 6.25 mg/kg/injection, schedule: Q01DX009 (ip), vehicle: other) turn out when `CN(C)N=Nc1cccc2c1N(C)c1ccc(F)cc1S2` was run?
Its T/C is 103 % of control.

What about the T/C (dose: 12.5 mg/kg/injection, schedule: Q01DX009 (ip), vehicle: other) of the same compound?
The T/C was 100 % of control.

What about the T/C (dose: 25.0 mg/kg/injection, schedule: Q01DX009 (ip), vehicle: other) of the same compound?
Its T/C is 108 % of control.

And the T/C (dose: 50.0 mg/kg/injection, schedule: Q01DX009 (ip), vehicle: other)?
Its T/C is 95 % of control.

What about the T/C (dose: 100.0 mg/kg/injection, schedule: Q01DX009 (ip), vehicle: other) of the same compound?
The T/C was 102 % of control.

Which results are given for `COc1cc2c(c3c1c(=O)c1cccc(F)c1n3C)C=CC(C)(C)O2`?
T/C [1]: 109 % of control; T/C [2]: 119 % of control; T/C [3]: 88 % of control

How did the T/C [4] turn out when `COc1cc(NC(N)=O)ccc1Nc1c2ccc(N)cc2nc2cc(N)ccc12` was run?
The T/C was 93 % of control.

What about the T/C (dose: 1.0 mg/kg/injection, schedule: Q01DX009 (ip), vehicle: saline) of the same compound?
The T/C was 111 % of control.

And the T/C (dose: 2.0 mg/kg/injection, schedule: Q01DX009 (ip), vehicle: saline)?
The T/C was 101 % of control.

And the T/C (dose: 4.0 mg/kg/injection, schedule: Q01DX009 (ip), vehicle: saline)?
The T/C was 86 % of control.

And the T/C (dose: 8.0 mg/kg/injection, schedule: Q01DX009 (ip), vehicle: saline)?
The T/C was 93 % of control.

What about the T/C (dose: 16.0 mg/kg/injection, schedule: Q01DX009 (ip), vehicle: saline) of the same compound?
Its T/C is 98 % of control.

With `CCC(N)C(=O)NCC(=O)NCC(=O)O` (stereo not drawn) (HELM PEPTIDE1{[CCC(N)C(=O)[*:2]].G.G}$$$$V2.0) as the compound, how does the T/C [5] read?
Its T/C is 105 % of control.

And the T/C [6]?
Its T/C is 108 % of control.

What about the T/C [7] of the same compound?
The T/C was 109 % of control.

Which results are given for `COC(OC(CO)C(O)S(=O)(=O)O)C(O)S(=O)(=O)O` (stereo not drawn)?
T/C (dose: 12.5 mg/kg/injection, schedule: Q01DX009 (ip), vehicle: saline): 108 % of control; T/C (dose: 25.0 mg/kg/injection, schedule: Q01DX009 (ip), vehicle: saline): 115 % of control; T/C [5]: 155 % of control

With `CC(=O)Nc1ccc(Nc2ccc(C(=C3C=CC(=[N+](C)CCC#N)C=C3)c3ccc(N(C)CCC#N)cc3)cc2)cc1` as the compound, how does the T/C (dose: 0.78 mg/kg/injection, schedule: Q01DX009 (ip), vehicle: saline with Tween-80) read?
The T/C was 105 % of control.

And the T/C (dose: 1.56 mg/kg/injection, schedule: Q01DX009 (ip), vehicle: saline with Tween-80)?
The T/C was 108 % of control.

And the T/C (dose: 3.12 mg/kg/injection, schedule: Q01DX009 (ip), vehicle: saline with Tween-80)?
Its T/C is 105 % of control.

And the T/C [8]?
The T/C was 107 % of control.

And the T/C [9]?
Its T/C is 120 % of control.

What about the T/C [10] of the same compound?
The T/C was 106 % of control.

Which results are given for `Oc1ccc2ccccc2c1N=Nc1ccc(F)cc1`?
T/C [11]: 111 % of control and 113 % of control; T/C [12]: 120 % of control; T/C [13]: 109 % of control and 123 % of control; T/C [14]: 113 % of control and 106 % of control

Which T/C [11] does the source give for `c1ccc(Cc2ccccc2)cc1` here?
Its T/C is 90 % of control.

What about the T/C [12] of the same compound?
Its T/C is 90 % of control.

And the T/C [13]?
The T/C was 95 % of control.

How did the T/C [5] turn out when `COCCOC` was run?
The T/C was 98 % of control.

And the T/C [6]?
Its T/C is 94 % of control.

What about the T/C [7] of the same compound?
The T/C was 96 % of control.

What does the source list for `N#Cc1c(N)[nH]c2ccc(Sc3ccccc3)cc12`?
T/C [8]: 110 % of control; T/C [9]: 94 % of control; T/C [10]: 99 % of control; T/C [11]: 107 % of control

How did the T/C (dose: 1.56 mg/kg/injection, schedule: Q01DX009 (ip), vehicle: water) turn out when `COc1ccc2c(c1)-c1nn(CCCN(C)C)c3ccc([N+](=O)[O-])c(c13)N2` was run?
Its T/C is 110 % of control.

What about the T/C (dose: 3.12 mg/kg/injection, schedule: Q01DX009 (ip), vehicle: water) of the same compound?
Its T/C is 116 % of control and 122 % of control.

Which T/C [3] does the source give for `CCCCC(NC(=O)C(C)NC(=O)OCc1ccccc1)C(=O)O` (stereo not drawn) here?
Its T/C is 101 % of control.

What about the T/C [15] of the same compound?
The T/C was 99 % of control.

What about the T/C [16] of the same compound?
The T/C was 94 % of control.

Which results are given for `CCCC(NC(=O)OCc1ccccc1)C(=O)NC(Cc1ccccc1)C(N)=O` (stereo not drawn) (Cbz-[Nva]-Phe-NH2; configuration not given here)?
T/C [3]: 101 % of control; T/C [15]: 91 % of control; T/C [16]: 89 % of control

What does the source list for `C/C=C/c1cc2n(c1)C(=O)c1cc(OC3OC(C)C(NC)C(C)(O)C3O)c(C)c(O)c1NC2O` (stereo not drawn)?
T/C (dose: 0.25 micrograms/kg/injection, schedule: Q01DX009 (ip), vehicle: saline): 106 % of control; T/C (dose: 2.0 micrograms/kg/injection, schedule: Q04DX003 (ip), vehicle: DMSO): 114 % of control

What does the source list for `O=NN(CCCl)C(=O)NC1CCCCC1`?
T/C (dose: 3.12 mg/kg/injection, schedule: Q01DX001 (ip), vehicle: carboxymethylcellulose (CMC)): 103 % of control; T/C (dose: 3.12 mg/kg/injection, schedule: Q01DX005 (ip), vehicle: carboxymethylcellulose (CMC)): 103 % of control; T/C (dose: 6.25 mg/kg/injection, schedule: Q01DX001 (ip), vehicle: carboxymethylcellulose (CMC)): 99 % of control; T/C (dose: 6.25 mg/kg/injection, schedule: Q01DX005 (ip), vehicle: carboxymethylcellulose (CMC)): 112 % of control; T/C (dose: 12.5 mg/kg/injection, schedule: Q01DX001 (ip), vehicle: carboxymethylcellulose (CMC)): 98 % of control; T/C (dose: 12.5 mg/kg/injection, schedule: Q01DX005 (ip), vehicle: carboxymethylcellulose (CMC)): 114 % of control; T/C (dose: 32.0 mg/kg/injection, schedule: Q01DX009 (ip), vehicle: Klucel (hydroxypropylcellulose) (HPC)): 86 % of control; T/C (dose: 50.0 mg/kg/injection, schedule: Q01DX001 (ip), vehicle: carboxymethylcellulose (CMC)): 177 % of control; T/C (dose: 50.0 mg/kg/injection, schedule: Q01DX005 (ip), vehicle: carboxymethylcellulose (CMC)): 172 % of control; T/C (dose: 100.0 mg/kg/injection, schedule: Q01DX001 (ip), vehicle: carboxymethylcellulose (CMC)): 204 % of control; T/C (dose: 100.0 mg/kg/injection, schedule: Q01DX005 (ip), vehicle: carboxymethylcellulose (CMC)): 107 % of control

`NC(=O)C1=CC2C3C=CC2(O)C(=O)OC3O1` (stereo not drawn) was tested. Which T/C (dose: 3.75 mg/kg/injection, schedule: Q01DX009 (ip), vehicle: Klucel (hydroxypropylcellulose) (HPC)) did it give?
Its T/C is 108 % of control and 123 % of control.

And the T/C (dose: 7.5 mg/kg/injection, schedule: Q01DX009 (ip), vehicle: Klucel (hydroxypropylcellulose) (HPC))?
The T/C was 118 % of control and 107 % of control.

And the T/C (dose: 15.0 mg/kg/injection, schedule: Q01DX009 (ip), vehicle: Klucel (hydroxypropylcellulose) (HPC))?
Its T/C is 114 % of control and 123 % of control.

What does the source list for `CCC1=C[C@H]2CN(CCc3c([nH]c4ccccc34)[C@@](C(=O)OC)(c3cc4c(cc3OC)N(C)[C@H]3[C@@](O)(C(=O)NC)[C@H](OC(C)=O)[C@]5(CC)C=CCN6CC[C@]43[C@@H]65)C2)C1`?
T/C (dose: 0.03 mg/kg/injection, schedule: Q01DX009 (ip), vehicle: saline): 117 % of control; T/C (dose: 0.06 mg/kg/injection, schedule: Q01DX009 (ip), vehicle: saline): 118 % of control; T/C (dose: 0.12 mg/kg/injection, schedule: Q01DX009 (ip), vehicle: saline): 170 % of control; T/C (dose: 0.25 mg/kg/injection, schedule: Q01DX009 (ip), vehicle: saline): 182 % of control; T/C [4]: 238 % of control

Which results are given for `Nc1ccc(OC(=O)Oc2ccc(N)cc2)cc1`?
T/C [5]: 113 % of control; T/C [6]: 104 % of control; T/C [7]: 98 % of control

For `CC(=O)Nc1ccc(/C=N/NC(N)=S)cc1`, which T/C [10] is on record?
The T/C was 93 % of control.

And the T/C [11]?
Its T/C is 97 % of control.

What about the T/C [12] of the same compound?
The T/C was 90 % of control.

And the T/C [13]?
Its T/C is 88 % of control.

What about the T/C [14] of the same compound?
The T/C was 92 % of control.

`O=S(=O)(N=N/C=C1\C=CC=CN1O)c1cccs1` was tested. Which T/C [9] did it give?
Its T/C is 101 % of control.

What about the T/C [10] of the same compound?
The T/C was 104 % of control.

What about the T/C [11] of the same compound?
The T/C was 114 % of control.

`O=C1C2=C(C(=O)c3cnccc31)C1C=CC2CC1` (stereo not drawn) was tested. Which T/C (dose: 12.5 mg/kg/injection, schedule: Q01DX009 (ip), vehicle: DMSO) did it give?
The T/C was 115 % of control.

And the T/C (dose: 25.0 mg/kg/injection, schedule: Q01DX009 (ip), vehicle: DMSO)?
Its T/C is 98 % of control.

And the T/C (dose: 50.0 mg/kg/injection, schedule: Q01DX009 (ip), vehicle: DMSO)?
Its T/C is 111 % of control.

And the T/C (dose: 100.0 mg/kg/injection, schedule: Q01DX009 (ip), vehicle: DMSO)?
The T/C was 98 % of control.
